Values of other authors, collected in PMC5245897 (PLoS ONE, 2017).

System: GLP-1 receptor
Parameters: method as in PMID 8396143
Conditions: GLP-1 receptor antagonist

Exendin(9–39)
GLP-1 receptor binding (in words): GLP-1 receptor antagonist binding with high affinity
